Test results published in ChEMBL document CHEMBL1221226 (Nat Chem Biol, 2009).
Positions of bridges follow the written chain, without caps; N, C: chain ends. Residues, ends and D or L forms follow the SMILES beside them. *: point of attachment. X1 = CC(CN[C@@H](Cc1cnc[nH]1)C(=O)O)C(=O)*

Key:
Glucagon receptor = Glucagon receptor (Homo sapiens, UniProt P47871); assay: Agonist activity at GCGR expressed in HEK293 cells assessed as stimulation of cAMP production by luciferase reporter gene assay; assay type: functional, cell-based
[1] = biological target: Glucagon-like peptide 1 receptor (Homo sapiens, UniProt P43220); assay: Agonist activity at GLP1R expressed in HEK293 cells assessed as stimulation of cAMP production by luciferase reporter gene assay; assay type: functional, cell-based
Chain of Glucagon-like peptide 1 receptor (P43220 whole entry): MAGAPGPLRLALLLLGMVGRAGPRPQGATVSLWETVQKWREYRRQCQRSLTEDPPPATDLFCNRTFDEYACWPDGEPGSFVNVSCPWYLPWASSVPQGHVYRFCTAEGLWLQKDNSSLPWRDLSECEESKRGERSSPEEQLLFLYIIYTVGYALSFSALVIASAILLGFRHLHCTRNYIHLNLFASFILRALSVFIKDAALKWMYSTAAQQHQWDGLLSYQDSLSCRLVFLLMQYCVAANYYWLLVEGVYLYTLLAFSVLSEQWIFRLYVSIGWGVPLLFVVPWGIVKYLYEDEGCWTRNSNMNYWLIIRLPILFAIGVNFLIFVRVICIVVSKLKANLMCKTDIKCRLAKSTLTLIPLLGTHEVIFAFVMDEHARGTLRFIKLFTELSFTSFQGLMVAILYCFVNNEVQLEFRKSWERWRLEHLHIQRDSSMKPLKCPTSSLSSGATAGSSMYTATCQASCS

Chain of Glucagon receptor (P47871 whole entry): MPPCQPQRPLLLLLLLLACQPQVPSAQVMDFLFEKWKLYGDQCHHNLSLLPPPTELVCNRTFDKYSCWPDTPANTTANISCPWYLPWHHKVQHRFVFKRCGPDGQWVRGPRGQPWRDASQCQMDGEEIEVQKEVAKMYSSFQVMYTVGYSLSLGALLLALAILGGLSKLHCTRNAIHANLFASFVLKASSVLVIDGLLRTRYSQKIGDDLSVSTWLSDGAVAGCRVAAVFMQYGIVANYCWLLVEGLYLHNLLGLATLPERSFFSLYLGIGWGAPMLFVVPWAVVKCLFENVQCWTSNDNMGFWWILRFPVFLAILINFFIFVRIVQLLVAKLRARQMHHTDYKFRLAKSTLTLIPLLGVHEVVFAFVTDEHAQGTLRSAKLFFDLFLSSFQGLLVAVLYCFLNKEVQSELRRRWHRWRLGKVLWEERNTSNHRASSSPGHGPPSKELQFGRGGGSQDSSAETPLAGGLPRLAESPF

In the case of `CSCC[C@H](NC(=O)[C@H](CC(C)C)NC(=O)[C@H](Cc1c[nH]c2ccccc12)NC(=O)[C@H](CCC(N)=O)NC(=O)[C@@H](NC(=O)[C@H](Cc1ccccc1)NC(=O)[C@H](CC(=O)O)NC(=O)[C@H](CCC(N)=O)NC(=O)[C@H](C)NC(=O)[C@H](CCCN=C(N)N)NC(=O)[C@H](CCCN=C(N)N)NC(=O)CNC(=O)[C@H](CC(=O)O)NC(=O)[C@H](CC(C)C)NC(=O)[C@H](Cc1ccc(O)cc1)NC(=O)[C@H](CCCCN)NC(=O)[C@H](CO)NC(=O)[C@H](Cc1ccc(O)cc1)NC(=O)[C@H](CC(=O)O)NC(=O)[C@H](CO)NC(=O)[C@@H](NC(=O)[C@H](Cc1ccccc1)NC(=O)[C@@H](NC(=O)CNC(=O)[C@H](CCC(N)=O)NC(=O)[C@H](CO)N[C@@H](Cc1cnc[nH]1)C(=O)O)[C@@H](C)O)[C@@H](C)O)C(C)C)C(=O)N[C@@H](CC(N)=O)C(=O)N[C@H](C(N)=O)[C@@H](C)O`, the EC50 (Glucagon receptor) is reported as 0.13 nM and the EC50 [1] is reported as 0.58 nM.

In the case of `CSCC[C@H](NC(=O)[C@H](CC(C)C)NC(=O)[C@H](Cc1c[nH]c2ccccc12)NC(=O)[C@H](CCC(N)=O)NC(=O)[C@@H](NC(=O)[C@H](Cc1ccccc1)NC(=O)[C@H](CC(=O)O)NC(=O)[C@H](CCCCN)NC(=O)[C@H](C)NC(=O)[C@H](CCCN=C(N)N)NC(=O)[C@H](CCC(N)=O)NC(=O)[C@H](CCC(=O)O)NC(=O)[C@H](CC(=O)O)NC(=O)[C@H](CC(C)C)NC(=O)[C@H](Cc1ccc(O)cc1)NC(=O)[C@H](CCCCN)NC(=O)[C@H](CO)NC(=O)[C@H](Cc1ccc(O)cc1)NC(=O)[C@H](CC(=O)O)NC(=O)[C@H](CO)NC(=O)[C@@H](NC(=O)[C@H](Cc1ccccc1)NC(=O)[C@@H](NC(=O)CNC(=O)[C@H](CCC(N)=O)NC(=O)[C@H](CO)N[C@@H](Cc1cnc[nH]1)C(=O)O)[C@@H](C)O)[C@@H](C)O)C(C)C)C(=O)N[C@@H](CC(N)=O)C(=O)N[C@H](C(N)=O)[C@@H](C)O`, the EC50 (Glucagon receptor) is reported as 0.048 nM and the EC50 [1] is reported as 0.075 nM.

`CSCC[C@H](NC(=O)[C@H](CC(C)C)NC(=O)[C@H](Cc1c[nH]c2ccccc12)NC(=O)[C@H](CCC(N)=O)NC(=O)[C@@H](NC(=O)[C@H](Cc1ccccc1)NC(=O)[C@H](CC(=O)O)NC(=O)[C@H](CCC(N)=O)NC(=O)[C@H](C)NC(=O)[C@H](CCCNC(=N)N)NC(=O)[C@H](CCCNC(=N)N)NC(=O)[C@H](CO)NC(=O)[C@H](CC(=O)O)NC(=O)[C@H](CC(C)C)NC(=O)[C@H](Cc1ccc(O)cc1)NC(=O)[C@H](CCCCN)NC(=O)[C@H](CO)NC(=O)[C@H](Cc1ccc(O)cc1)NC(=O)[C@H](CC(=O)O)NC(=O)[C@H](CO)NC(=O)[C@@H](NC(=O)[C@H](Cc1ccccc1)NC(=O)[C@@H](NC(=O)CNC(=O)[C@H](CCC(N)=O)NC(=O)[C@H](CO)N[C@@H](Cc1cnc[nH]1)C(=O)O)[C@@H](C)O)[C@@H](C)O)C(C)C)C(=O)N[C@@H](CC(N)=O)C(=O)N[C@H](C(N)=O)[C@@H](C)O` gave an EC50 (Glucagon receptor) of 0.15 nM and an EC50 [1] of 0.6 nM.

In the case of `CSCC[C@H](NC(=O)[C@H](CC(C)C)NC(=O)[C@H](Cc1c[nH]c2ccccc12)NC(=O)[C@H](CCC(N)=O)NC(=O)[C@@H](NC(=O)[C@H](Cc1ccccc1)NC(=O)[C@H](CC(=O)O)NC(=O)[C@H](CCC(N)=O)NC(=O)[C@H](C)NC(=O)[C@H](CCCNC(=N)N)NC(=O)[C@H](CCCNC(=N)N)NC(=O)[C@H](CCS(=O)(=O)O)NC(=O)[C@H](CC(=O)O)NC(=O)[C@H](CC(C)C)NC(=O)[C@H](Cc1ccc(O)cc1)NC(=O)[C@H](CCCCN)NC(=O)[C@H](CO)NC(=O)[C@H](Cc1ccc(O)cc1)NC(=O)[C@H](CC(=O)O)NC(=O)[C@H](CO)NC(=O)[C@@H](NC(=O)[C@H](Cc1ccccc1)NC(=O)[C@@H](NC(=O)CNC(=O)[C@H](CCC(N)=O)NC(=O)[C@H](CO)N[C@@H](Cc1cnc[nH]1)C(=O)O)[C@@H](C)O)[C@@H](C)O)C(C)C)C(=O)N[C@@H](CC(N)=O)C(=O)N[C@H](C(N)=O)[C@@H](C)O`, the EC50 (Glucagon receptor) is reported as 0.1 nM and the EC50 [1] is reported as 0.12 nM.

`CSCC[C@H](NC(=O)[C@H](CC(C)C)NC(=O)[C@H](Cc1c[nH]c2ccccc12)NC(=O)[C@H](CCC(N)=O)NC(=O)[C@@H](NC(=O)[C@H](Cc1ccccc1)NC(=O)[C@H](CC(=O)O)NC(=O)[C@@H]1CCCCNC(=O)CC[C@H](NC(=O)[C@H](CC(=O)O)NC(=O)[C@H](CC(C)C)NC(=O)[C@H](Cc2ccc(O)cc2)NC(=O)[C@H](CCCCN)NC(=O)[C@H](CO)NC(=O)[C@H](Cc2ccc(O)cc2)NC(=O)[C@H](CC(=O)O)NC(=O)[C@H](CO)NC(=O)[C@@H](NC(=O)[C@H](Cc2ccccc2)NC(=O)[C@@H](NC(=O)CNC(=O)[C@H](CCC(N)=O)NC(=O)[C@H](CO)N[C@@H](Cc2cnc[nH]2)C(=O)O)[C@@H](C)O)[C@@H](C)O)C(=O)N[C@@H](CCCNC(=N)N)C(=O)N[C@@H](CCCNC(=N)N)C(=O)N[C@@H](C)C(=O)N1)C(C)C)C(=O)N[C@@H](CC(N)=O)C(=O)N[C@H](C(=O)O)[C@@H](C)O` showed an EC50 (Glucagon receptor) of 0.058 nM and an EC50 [1] of 0.049 nM.

Work on `CC[C@H](C)[C@H](NC(=O)[C@H](Cc1ccccc1)NC(=O)[C@H](CCC(=O)O)NC(=O)[C@H](CCCCN)NC(=O)[C@H](C)NC(=O)[C@H](C)NC(=O)[C@H](CCC(=O)O)NC(=O)[C@H](CCC(=O)O)NC(=O)[C@H](CCC(=O)O)NC(=O)[C@H](CC(C)C)NC(=O)[C@H](Cc1ccc(O)cc1)NC(=O)[C@H](CO)NC(=O)[C@H](CO)NC(=O)[C@@H](NC(=O)[C@H](CC(=O)O)NC(=O)[C@H](CO)NC(=O)[C@@H](NC(=O)[C@H](Cc1ccccc1)NC(=O)[C@@H](NC(=O)CNC(=O)[C@H](CCC(=O)O)NC(=O)[C@H](C)N[C@@H](Cc1cnc[nH]1)C(=O)O)[C@@H](C)O)[C@@H](C)O)C(C)C)C(=O)N[C@@H](C)C(=O)N[C@@H](Cc1c[nH]c2ccccc12)C(=O)N[C@@H](CC(C)C)C(=O)N[C@H](C(=O)N[C@@H](CCCCN)C(=O)NCC(=O)N[C@@H](CCN=C(N)N)C(N)=O)C(C)C` yielded an EC50 (Glucagon receptor) of over 1000 nM and an EC50 [1] of 0.011 nM.

Compound `CSCC[C@H](NC(=O)[C@H](CC(C)C)NC(=O)[C@H](Cc1c[nH]c2ccccc12)NC(=O)[C@@H]1CCC(=O)NCCCC[C@H](NC(=O)[C@H](C)NC(=O)[C@H](CCCN=C(N)N)NC(=O)[C@H](CCCN=C(N)N)NC(=O)[C@H](CO)NC(=O)[C@H](CC(=O)O)NC(=O)[C@H](CC(C)C)NC(=O)[C@H](Cc2ccc(O)cc2)NC(=O)[C@H](CCCCN)NC(=O)[C@H](CO)NC(=O)[C@H](Cc2ccc(O)cc2)NC(=O)[C@H](CC(=O)O)NC(=O)[C@H](CO)NC(=O)[C@@H](NC(=O)[C@H](Cc2ccccc2)NC(=O)[C@@H](NC(=O)CNC(=O)[C@H](CCC(N)=O)NC(=O)[C@H](CO)N[C@@H](Cc2cnc[nH]2)C(=O)O)[C@@H](C)O)[C@@H](C)O)C(=O)N[C@@H](CC(=O)O)C(=O)N[C@@H](Cc2ccccc2)C(=O)N[C@@H](C(C)C)C(=O)N1)C(=O)N[C@@H](CC(N)=O)C(=O)N[C@H](C(=O)O)[C@@H](C)O` has an EC50 (Glucagon receptor) of 0.078 nM and an EC50 [1] of 0.24 nM.

Compound `CC[C@H](C)[C@H](NC(=O)[C@H](Cc1ccccc1)NC(=O)[C@H](CCC(=O)O)NC(=O)[C@@H]1CCCCNC(=O)CC[C@H](NC(=O)[C@H](CC(=O)O)NC(=O)[C@H](CC(C)C)NC(=O)[C@H](Cc2ccc(O)cc2)NC(=O)[C@H](CCCCN)NC(=O)[C@H](CO)NC(=O)[C@H](Cc2ccc(O)cc2)NC(=O)[C@H](CC(=O)O)NC(=O)[C@H](CO)NC(=O)[C@@H](NC(=O)[C@H](Cc2ccccc2)NC(=O)[C@@H](NC(=O)CNC(=O)[C@H](CCC(N)=O)NC(=O)C(C)CN[C@@H](Cc2cnc[nH]2)C(=O)O)[C@@H](C)O)[C@@H](C)O)C(=O)N[C@@H](CCC(N)=O)C(=O)N[C@@H](C)C(=O)N[C@@H](C)C(=O)N1)C(=O)N[C@@H](C)C(=O)N[C@@H](Cc1c[nH]c2ccccc12)C(=O)N[C@@H](CC(C)C)C(=O)N[C@@H](CCSC)C(=O)N[C@@H](CC(N)=O)C(=O)N[C@H](C(=O)O)[C@@H](C)O` (stereo not given in full) (X1-QGTFTSDYSKYLDEQAAKEFIAWLMNT-OH; lactam 14-18) has an EC50 (Glucagon receptor) of 0.055 nM and an EC50 [1] of 0.013 nM.

`CSCC[C@H](NC(=O)[C@H](CC(C)C)NC(=O)[C@H](Cc1c[nH]c2ccccc12)NC(=O)[C@H](CCC(N)=O)NC(=O)[C@@H](NC(=O)[C@H](Cc1ccccc1)NC(=O)[C@H](CC(=O)O)NC(=O)[C@H](CCC(N)=O)NC(=O)[C@H](C)NC(=O)[C@H](CCCNC(=N)N)NC(=O)[C@H](CCCNC(=N)N)NC(=O)[C@H](CC(=O)O)NC(=O)[C@H](CC(=O)O)NC(=O)[C@H](CC(C)C)NC(=O)[C@H](Cc1ccc(O)cc1)NC(=O)[C@H](CCCCN)NC(=O)[C@H](CO)NC(=O)[C@H](Cc1ccc(O)cc1)NC(=O)[C@H](CC(=O)O)NC(=O)[C@H](CO)NC(=O)[C@@H](NC(=O)[C@H](Cc1ccccc1)NC(=O)[C@@H](NC(=O)CNC(=O)[C@H](CCC(N)=O)NC(=O)[C@H](CO)N[C@@H](Cc1cnc[nH]1)C(=O)O)[C@@H](C)O)[C@@H](C)O)C(C)C)C(=O)N[C@@H](CC(N)=O)C(=O)N[C@H](C(N)=O)[C@@H](C)O` was tested, and the EC50 (Glucagon receptor) was 0.068 nM and the EC50 [1] was 0.57 nM.

With `CC[C@H](C)[C@H](NC(=O)[C@H](Cc1ccccc1)NC(=O)[C@H](CCC(=O)O)NC(=O)[C@H](CCCCN)NC(=O)[C@H](C)NC(=O)[C@H](C)NC(=O)[C@H](CCC(N)=O)NC(=O)[C@H](CCC(=O)O)NC(=O)[C@H](CC(=O)O)NC(=O)[C@H](CC(C)C)NC(=O)[C@H](Cc1ccc(O)cc1)NC(=O)[C@H](CCCCN)NC(=O)[C@H](CO)NC(=O)[C@H](Cc1ccc(O)cc1)NC(=O)[C@H](CC(=O)O)NC(=O)[C@H](CO)NC(=O)[C@@H](NC(=O)[C@H](Cc1ccccc1)NC(=O)[C@@H](NC(=O)CNC(=O)[C@H](CCC(N)=O)NC(=O)[C@H](CO)NC(=O)[C@@H](N)Cc1cnc[nH]1)[C@@H](C)O)[C@@H](C)O)C(=O)N[C@@H](C)C(=O)N[C@@H](Cc1c[nH]c2ccccc12)C(=O)N[C@@H](CC(C)C)C(=O)N[C@H](C(=O)N[C@@H](CCCCN)C(=O)NCC(=O)O)C(C)C` (H-HSQGTFTSDYSKYLDEQAAKEFIAWLVKG-OH) the EC50 (Glucagon receptor; hek293) was 0.47 nM and the EC50 ([1]; hek293) was 0.015 nM.
